± gives the standard deviation of the averaged measurements.

Compound in assay [1]: Oc1nc(-c2ccc(C(F)(F)F)cc2)nc2c1CSCC2 [XAV-939]
Briefly: surviving fraction relative to DMSO-only wells; higher = less growth inhibition. The following applies: exposure time: 5 days. The essentials:
(§1)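 Surviving fraction is CellTiter-Glo luminescence divided by the median of wells given DMSO only. For this, log-phase tumour cell lines went into 384-well plates at 250–500 cells per well and, 24 hours later, into five days of continuous inhibitor exposure at 0.5, 1, 5, 10, 50, 100, 500 and 1000 nM. Lines were screened three times and retained only if replicate Pearson r >0.7 and median Z' >0.3.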

Compound in assay [2]: COc1cc2c(Oc3ccc(NC(=O)C4(C(=O)Nc5ccc(F)cc5)CC4)cc3F)ccnc2cc1OCCCN1CCOCC1 [FORETINIB]
The assay is described as above. The following applies: exposure time: 5 days. The essentials: as §1

On to MDAMB157 BREAST, for which the surviving fraction in assay [1] (0.5 nM) turned out to be 0.969 ± 0.012; in assay [1] (1 nM), 0.94 ± 0.11; in assay [1] (5 nM), 0.974 ± 0.059; in assay [1] (10 nM), 1.05 ± 0.039; in assay [1] (50 nM) it was 0.919 ± 0.084; in assay [1] (100 nM), 0.934 ± 0.079. Besides, the surviving fraction is 0.775 ± 0.071 in assay [1] (500 nM); 0.709 ± 0.074 in assay [1] (1000 nM); 0.967 ± 0.045 in assay [2] (0.5 nM); 0.987 ± 0.035 in assay [2] (1 nM); 1.1 ± 0.095 in assay [2] (5 nM); 0.975 ± 0.0044 in assay [2] (10 nM). The surviving fraction in assay [2] (50 nM) stood at 0.971 ± 0.074; in assay [2] (100 nM) it was 0.934 ± 0.081; in assay [2] (500 nM), 0.537 ± 0.085; in assay [2] (1000 nM) it was 0.231 ± 0.02.
With HCC1806 BREAST, the surviving fraction in assay [1] (0.5 nM) was found to be 0.98 ± 0.029; in assay [1] (1 nM), 1.2 ± 0.089; in assay [1] (5 nM), 1.11 ± 0.078; in assay [1] (10 nM) it was 1.07 ± 0.061; in assay [1] (50 nM), 1.14 ± 0.13; in assay [1] (100 nM), 1.1 ± 0.036. In addition, the surviving fraction in assay [1] (500 nM) stood at 1.04 ± 0.073; in assay [1] (1000 nM) it was 1.06 ± 0.091; in assay [2] (0.5 nM), 1.13 ± 0.071; in assay [2] (1 nM), 0.942 ± 0.035; in assay [2] (5 nM), 1.21 ± 0.031; in assay [2] (10 nM), 1.12 ± 0.038. Also, the surviving fraction in assay [2] (50 nM) came to 1.16 ± 0.11; in assay [2] (100 nM) it was 1.12 ± 0.056; in assay [2] (500 nM), 0.468 ± 0.014; in assay [2] (1000 nM), 0.452 ± 0.033.
In the case of SIHA CERVIX, the surviving fraction in assay [1] (0.5 nM) came to 1.02 ± 0.045; in assay [1] (1 nM), 1.05 ± 0.067; in assay [1] (5 nM), 1.05 ± 0.084; in assay [1] (10 nM), 1.16 ± 0.13; in assay [1] (50 nM) it was 1.1 ± 0.044; in assay [1] (100 nM) it was 1.19 ± 0.025. The surviving fraction in assay [1] (500 nM) amounted to 1 ± 0.063; in assay [1] (1000 nM), 0.974 ± 0.046; in assay [2] (0.5 nM), 1.12 ± 0.02; in assay [2] (1 nM), 1.18 ± 0.04; in assay [2] (5 nM), 1.09 ± 0.046; in assay [2] (10 nM), 1.09 ± 0.081. The surviving fraction in assay [2] (50 nM) came to 1.01 ± 0.066; in assay [2] (100 nM), 1.01 ± 0.031; in assay [2] (500 nM), 0.667 ± 0.019; in assay [2] (1000 nM) it was 0.523 ± 0.0076.
Turning to MHM BONE, the surviving fraction in assay [1] (0.5 nM) was 0.999 ± 0.011; in assay [1] (1 nM), 1.02 ± 0.033; in assay [1] (5 nM), 1.024 ± 0.009; in assay [1] (10 nM), 1.03 ± 0.033; in assay [1] (50 nM), 0.96 ± 0.081; in assay [1] (100 nM) it was 1.04 ± 0.012. The surviving fraction in assay [1] (500 nM) amounted to 0.963 ± 0.005; in assay [1] (1000 nM) it was 0.949 ± 0.029; in assay [2] (0.5 nM), 1.04 ± 0.015; in assay [2] (1 nM) it was 1.01 ± 0.012; in assay [2] (5 nM), 1.05 ± 0.015; in assay [2] (10 nM), 1.08 ± 0.026. Further, the surviving fraction in assay [2] (50 nM) was determined as 1.03 ± 0.017; in assay [2] (100 nM), 0.973 ± 0.0092; in assay [2] (500 nM), 0.859 ± 0.026; in assay [2] (1000 nM), 0.8 ± 0.016.
As to HOSMNG BONE, the surviving fraction in assay [1] (0.5 nM) amounted to 0.922 ± 0.14; in assay [1] (1 nM), 1.01 ± 0.11; in assay [1] (5 nM) it was 0.947 ± 0.077; in assay [1] (10 nM) it was 0.934 ± 0.1; in assay [1] (50 nM), 0.948 ± 0.17; in assay [1] (100 nM), 0.944 ± 0.089. In addition, the surviving fraction in assay [1] (500 nM) came to 0.934 ± 0.069; in assay [1] (1000 nM), 1.06 ± 0.094; in assay [2] (0.5 nM), 0.915 ± 0.11; in assay [2] (1 nM), 0.904 ± 0.074; in assay [2] (5 nM), 0.895 ± 0.066; in assay [2] (10 nM), 0.855 ± 0.036. Besides, the surviving fraction in assay [2] (50 nM) stood at 0.55 ± 0.039; in assay [2] (100 nM) it was 0.381 ± 0.014; in assay [2] (500 nM) it was 0.128 ± 0.0089; in assay [2] (1000 nM), 0.065 ± 0.0044.
With C33A CERVIX, the surviving fraction turned out to be 0.909 ± 0.039 in assay [1] (0.5 nM); 0.973 ± 0.1 in assay [1] (1 nM); 0.981 ± 0.032 in assay [1] (5 nM); 1.03 ± 0.068 in assay [1] (10 nM); 0.913 ± 0.068 in assay [1] (50 nM); 0.901 ± 0.048 in assay [1] (100 nM). Also, the surviving fraction in assay [1] (500 nM) is 0.835 ± 0.062; in assay [1] (1000 nM), 0.755 ± 0.04; in assay [2] (0.5 nM), 1.02 ± 0.059; in assay [2] (1 nM), 1.06 ± 0.086; in assay [2] (5 nM) it was 1.1 ± 0.042; in assay [2] (10 nM), 1.14 ± 0.098. For the same test system, the surviving fraction was found to be 1.03 ± 0.041 in assay [2] (50 nM), 1.04 ± 0.047 in assay [2] (100 nM), 0.596 ± 0.057 in assay [2] (500 nM) and 0.508 ± 0.029 in assay [2] (1000 nM).
With BT549 BREAST, the surviving fraction worked out at 1.16 ± 0.085 in assay [1] (0.5 nM); 1.19 ± 0.079 in assay [1] (1 nM); 1.03 ± 0.077 in assay [1] (5 nM); 1.16 ± 0.082 in assay [1] (10 nM); 1.18 ± 0.044 in assay [1] (50 nM); 1.08 ± 0.091 in assay [1] (100 nM). Moreover, the surviving fraction in assay [1] (500 nM) was determined as 0.884 ± 0.014; in assay [1] (1000 nM) it was 0.872 ± 0.091; in assay [2] (0.5 nM), 1.09 ± 0.059; in assay [2] (1 nM) it was 1.08 ± 0.059; in assay [2] (5 nM) it was 1.09 ± 0.15; in assay [2] (10 nM), 1.12 ± 0.089. For the same test system, the surviving fraction amounted to 1.08 ± 0.12 in assay [2] (50 nM), 1.15 ± 0.12 in assay [2] (100 nM), 0.701 ± 0.022 in assay [2] (500 nM) and 0.222 ± 0.014 in assay [2] (1000 nM).
Regarding MDAMB231 BREAST, the surviving fraction in assay [1] (0.5 nM) came out at 0.957 ± 0.013; in assay [1] (1 nM), 1.01 ± 0.028; in assay [1] (5 nM), 0.982 ± 0.021; in assay [1] (10 nM), 0.983 ± 0.018; in assay [1] (50 nM), 0.917 ± 0.016; in assay [1] (100 nM), 0.866 ± 0.025. The surviving fraction in assay [1] (500 nM) was 0.656 ± 0.015; in assay [1] (1000 nM), 0.586 ± 0.026; in assay [2] (0.5 nM), 0.974 ± 0.018; in assay [2] (1 nM), 0.985 ± 0.013; in assay [2] (5 nM), 0.998 ± 0.017; in assay [2] (10 nM), 1 ± 0.03. Besides, the surviving fraction stood at 0.971 ± 0.0077 in assay [2] (50 nM), 0.9367 ± 0.0039 in assay [2] (100 nM), 0.489 ± 0.0095 in assay [2] (500 nM) and 0.449 ± 0.0084 in assay [2] (1000 nM).

The values above are taken from the supplement of paper PMC6045584.
